Measured values: PMC9436958, “The synthesis of novel thioderivative chalcones and their influence on NF-κB, STAT3 and NRF2 signaling pathways in colorectal cancer cells” (Scientific Reports, 2022)
Where two headings read alike, the source gives them in different places.

How the values were obtained:
HCT116 cells [1] = test: Apoptosis, Annexin V / 7-AAD flow cytometry, HCT116; assay type: cell-based; settings: 48 h, increase of early, late and total apoptosis
Experimental: (§1) Apoptosis was assessed by the detection of phosphatidylserine externalization based on Annexin V staining combined with fluorescent DNA intercalator 7-Aminoactinomycin D (7-AAD) what allowed for the discrimination between early and late apoptotic cells. The analysis was performed by flow cytometry using the Muse Annexin V & Dead Cell Kit (Luminex, USA) and the Muse Cell Analyzer (Merck, Germany), according to the manufacturer’s protocol. Cells were seeded (2 × 10^5 cells per well) in six-well plates and on the following day the analyzed compounds were added. Topotecan (Sigma-Aldrich, USA) was used as a positive control of apoptosis induction. After 48 h cells were collected by trypsinization, stained and after 20 min incubation at room temperature in the dark analyzed by flow cytometry. Three independent experiments were performed. Data were analyzed by Muse 1.5 Analysis Software (Merck, Germany).

COX-2 [2] = test: COX-2 expression (qRT-PCR mRNA, Western blot protein); assay type: cell-based; settings: BAY 11-7082 5 µM; both tested cell lines
Experimental: (§2) Cytosolic and nuclear extracts were prepared using a Nuclear/Cytosol Fractionation Kit (BioVision Research, USA). Cytosolic extracts (for NF-κBp65, NF-κBp50, COX-2, iNOS, STAT3, c-Myc, Bcl-xl, Nrf2, SOD, GSTP, EGFR, Akt, p-Akt, Keap1, IKKα/β and β-actin) or nuclear extracts (for NF-κBp65, NF-κBp50, STAT3, p-STAT3, Nrf2, p-Nrf2 and lamin) were separated on 7.5%, 10% or 12% SDS–PAGE slab gels. Then, the proteins were transferred to a nitrocellulose Immobilon-P membrane. After blocking for 2 h with 10% skimmed milk, proteins were incubated with primary antibodies against NF-κBp65, NF-κBp50, COX-2, iNOS, STAT3, p-STAT3, c-Myc, Bcl-xl, Nrf2, p-Nrf2, SOD, GSTP, EGFR, Akt, p-Akt, Keap1, IKKα/β, β-actin, and lamin. Alkaline phosphatase (AP)-labeled anti-rabbit IgG, anti-goat IgG, and anti-mouse IgG secondary antibodies (Bio-Rad Laboratories, USA), as well as horseradish peroxidase (HRP)-conjugated anti-mouse IgG (Boster Bio, USA) secondary antibodies were used in the staining reaction. Bands were visualized by the AP Conjugate Substrate Kit NBT/BCIP or the chemiluminescent HRP substrate of the Clarity ECL Kit (Bio–Rad Laboratories, USA). The amount of immunoreactive product in each lane was determined using a ChemiDoc Imaging System (Bio–Rad Laboratories, USA). Values were calculated as relative absorbance units (RQ) per mg of protein and expressed as a percentage of the control.
Total RNA from cells was isolated with the GeneMatrix Universal DNA/RNA/Protein Purification Kit (EurX, Poland). For the qRT-PCR analyses, the Maxima SYBR Green I/ROX qPCR Master Mix (2×) (Thermo Fisher Scientific, USA) and the thermal cycler LightCycler (Roche, Germany) were used. The protocol started with 5 min of enzyme activation at 95 °C, followed by 40–50 cycles at 95 °C for 15 s, 56 °C for 20 s, 72 °C for 40 s, and final elongation at 72 °C for 5 min. Melting curve analysis was used for amplicon verification. The expression levels of TATA-box-binding protein (TBP) and porphobilinogen deaminase (PBGD) were used to normalize the data. The Pfaffl comparative method was used to calculate fold change. Primers were designed using Beacon Designer software (the sequences of primers used to analyze genes are listed in Table 2 of the supplementary materials).

DLD-1 cells [3] = test: Cell cycle distribution, PI staining, flow cytometry, DLD-1; assay type: cell-based; settings: 48 h, BAY 11-7082 5 µM, 5 in higher (doubled) concentration
Experimental: (§3) The analysis of the cell cycle distribution was performed by propidium iodide (PI) staining. The addition of RNase A improved the specificity of PI binding to DNA. The Muse Cell Cycle Kit (Luminex, USA) and flow cytometric detection were performed with the Muse Cell Analyzer (Merck, Germany), according to the manufacturer’s protocol. Briefly, cells were seeded (2 × 10^5 cells per well) in 6-well plates and on the following day the analyzed compounds were added. Topotecan (Sigma-Aldrich, USA) was used as a positive control of cell cycle arrest. After 48 h cells were collected by trypsinization, fixed in cold 70% ethanol and stored at –20 °C. Then, fixed cells were collected and stained with PI, subjected to 30 min incubation at room temperature in the dark and analyzed by flow cytometry. Three independent experiments were performed. Data were analyzed by Muse 1.5 Analysis Software (Merck, Germany).

DLD-1 cells [4] = test: Apoptosis, Annexin V / 7-AAD flow cytometry, DLD-1; assay type: cell-based; settings: 48 h, mainly early and total apoptotic populations enriched
Experimental: as §1

NF-κB p50 = test: Western blot, NF-κB p50 protein level; assay type: cell-based; settings: BAY 11-7082 5 µM; both tested cell lines
Experimental: as §2

HCT116 cells [5] = test: Cell cycle distribution, PI staining, flow cytometry, HCT116; assay type: cell-based; settings: 48 h, BAY 11-7082 5 µM, 4 and 5 in higher (doubled) concentrations
Experimental: as §3

NF-κB p65 = test: Western blot, NF-κB p65 protein level; assay type: cell-based; settings: BAY 11-7082 5 µM; both tested cell lines
Experimental: as §2

DLD-1 cells [6] = test: Wound healing assay (cell migration); assay type: cell-based; settings: 24 h, 4 at standard concentration (1 μM), BAY 11-7082 5 µM
Experimental: Cell migration was assessed by the wound healing assay. DLD-1 cells were seeded into 24-well plates (5 × 10^5 cells per well) and were grown overnight to reach confluency. A scratch was performed using a 10 μl tip, wells were rinsed twice with PBS buffer to remove detached cells, and fresh medium with reduced FBS concentration (0.5%) containing the tested compounds was added. Subsequently, representative microscopic photographs of scratch areas were taken by JuLI FL microscope (NanoEntek, South Korea) direct after the addition of compounds and after 24 h. Area covered by cells (%) was assessed using JuLI FL software and the difference in the coverage of the growth area by DLD-1 cells between 0 and 24 h time points was calculated for each well. The experiment was repeated three times. The relative effect of the tested compounds on cell migration was calculated by comparing the difference in cell coverage area between compound-treated cells and DMSO-vehicle control (tested compound [area 24 h − area 0 h] / DMSO-vehicle control [area 24 h − area 0 h]).

COX-2 [7] = system: COX-2; set-up: method as in PMID 34120541; settings: PANC-1 pancreatic cancer cells; cited from earlier work
NF-κB = system: NF-κB; set-up: method as in PMID 34120541; settings: PANC-1 pancreatic cancer cells; cited from earlier work
Nrf2 signaling pathway = system: Nrf2 signaling pathway; set-up: method as in PMID 23085367, PMID 34120541; settings: cited from earlier work

SMILES	induction of apoptosis (HCT116 cells [1])	level of COX-2, compared with the studied chalcones (COX-2 [2])	cell cycle distribution (in words) (DLD-1 cells [3])	induction of apoptosis (DLD-1 cells [4])	level of NF-κBp50, compared with the studied chalcones (NF-κB p50)	cell cycle distribution (in words) (HCT116 cells [5])	level of NF-κBp65, compared with the studied chalcones (NF-κB p65)	reduction of cell migration rate (wound healing) vs DMSO-treated cells (DLD-1 cells [6])	expression of COX-2 (COX-2 [7])	activation of NF-κB (NF-κB)	binding of both NF-κB subunits to DNA (NF-κB)	activation of the Nrf2 signaling pathway (Nrf2 signaling pathway; HepG2 hepatoma cells)	activation of the Nrf2 signaling pathway (Nrf2 signaling pathway; PANC-1 pancreatic cancer cells)
Cc1ccc(S(=O)(=O)/C=C/C#N)cc1 [BAY 11-7082, reference compound]	able to induce apoptosis	more potent inhibition	decrease of G1/G0 cell cycle phase	able to induce apoptosis	more potent inhibition	decreased G1/G0 phases; increased S and G2/M phases	more potent inhibition	at the same level as DMSO-treated cells					
COc1cc(O)c(CC=C(C)C)c(O)c1C(=O)/C=C/c1ccc(O)cc1 [xanthohumol]									decreased	decreased the activation of NF-κB	decreased	significantly increased activation	significantly increased activation
